# Assay results: patent publication US20260097047A1, “Small molecule inhibitors of the ribosome biogenesis factor NVL2” (Board of Regents, The University of Texas System, priority 2023, published 2026)
# System: HCT116 cells
# Test: Cell viability assay (CellTiter-Glo, 72 hours) in HCT116 human colorectal cancer cells
# Format: cell-based
# Settings: Homo sapiens, HCT-116; Table 5; HCT116, 72 hours; read-out: Activity
# In short: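 Ten-point IC50 came from an asymmetric five-parameter fit of luminescence corrected to vehicle wells. ATP content was measured by CellTiter-Glo 72 h after dosing at 37 °C. Cells were seeded at 2,000/well the day before, with 0.5% DMSO in all wells.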
row,Structure (SMILES),IC50 [nM]
1,"CC#CCN1C(=O)c2ccccc2Sc2cc(Nc3ncc(C#N)cc3C)ccc21 [6-((10-(But-2-yn-1-yl)-11-oxo-10,11-dihydrodibenzo[b,f][1,4]thiazepin-7-yl)amino)-5-methylnicotinonitrile]",< 500
2,"CC#CCN1C(=O)c2ccccc2Cc2cc(Nc3ncccc3F)ccc21 [5-(But-2-yn-1-yl)-2-((3-fluoropyridin-2-yl)amino)-5H-dibenzo[b,e]azepin-6 (11H)-one]",< 500
3,"CC#CCN1C(=O)c2ccccc2Sc2cc(Nc3nnc(C#N)cc3C)ccc21 [6-((10-(But-2-yn-1-yl)-11-oxo-10,11-dihydrodibenzo[b,f][1,4]thiazepin-7-yl)amino)-5-methylpyridazine-3-carbonitrile]",< 500
4,"CC#CCN1C(=O)c2ccc(C#N)cc2Sc2cc(Nc3ncc(C#N)cc3C)ccc21 [10-(But-2-yn-1-yl)-7-((5-cyano-3-methylpyridin-2-yl)amino)-11-oxo-10,11-dihydrodibenzo[b,f][1,4]thiazepine-3-carbonitrile]",< 500
5,"CCC/C=C/CN1C(=O)c2ccccc2Sc2cc(Nc3ncccc3C(F)(F)F)ccc21 [(E)-10-(Hex-2-en-1-yl)-7-((3-(trifluoromethyl)pyridin-2-yl)amino)dibenzo[b,f][1,4]thiazepin-11 (10H)-one]",500 to 1000
6,"CC#CCN1C(=O)c2ccc(F)cc2Sc2cc(Nc3nccnc3OC)ccc21 [10-(But-2-yn-1-yl)-3-fluoro-7-((3-methoxypyrazin-2-yl)amino)dibenzo[b,f][1,4]thiazepin-11 (10H)-one]",500 to 1000
7,"CC#CCN1C(=O)c2ccccc2Sc2cc(Nc3nccc(C)c3F)ccc21 [10-(But-2-yn-1-yl)-7-((3-fluoro-4-methylpyridin-2-yl)amino)dibenzo[b,f][1,4]thiazepin-11 (10H)-one]",< 500

# Same assay, conditions: Homo sapiens, HCT-116; Table 9; HCT116, 72 hours; read-out: Activity
row,Structure (SMILES),IC50 [nM]
1,"CC#CCN1C(=O)c2ccccc2C(C)c2cc(NC(=O)c3ccc(OC)cc3)ccc21 (stereo not drawn) [Table 9: —CH2CCMe; 4-MeOPh; CHMe, N-(5-(But-2-yn-1-yl)-11-methyl-6-oxo-6,11-dihydro-5H-dibenzo[b,e]azepin-2-yl)-4-methoxybenzamide]",< 500
2,"CC#CCN1C(=O)c2ccccc2C(C)c2cc(NC(=O)c3ccc4oc(=O)n(C)c4c3)ccc21 (stereo not drawn) [N-(5-(But-2-yn-1-yl)-11-methyl-6-oxo-6,11-dihydro-5H-dibenzo[b,e]azepin-2-yl)-3-methyl-2-oxo-2,3-dihydrobenzo[d]oxazole-5-carboxamide]",< 500

# Same assay, conditions: Table 3; HCT116, 72 hours; read-out: Activity
row,Structure (SMILES),IC50 [nM]
1,CC#CCN1C(=O)c2ccccc2Sc2cc(NC(=O)N[C@H]3C[C@@H](O)C3)cnc21 [Table 3: —CH2CCMe; cis-3-OH-cBu; CH/N],< 500

# Same assay, conditions: Table 4; HCT116, 72 hours; read-out: Activity
row,Structure (SMILES),IC50 [nM]
1,CC#CCN1C(=O)c2ccccc2Sc2cc(NC(=S)Nc3ccc(OC)cc3)cnc21 [Table 4: —CH2CCMe; 4-MeOPh; N],< 500
2,CC#CCN1C(=O)c2ccccc2Sc2cc(NC(=S)Nc3ccc4oc(=O)n(C)c4c3)cnc21,< 500

# Same assay, conditions: Table 5; HCT116, 72 hours; read-out: Activity
row,Structure (SMILES),IC50 [nM]
1,CC#CCN1C(=O)c2ccccc2Sc2cc(Nc3ncccc3C)cnc21,< 500
2,CC=CCN1C(=O)c2ccccc2Sc2cc(Nc3ncccc3C#N)ccc21,< 500
3,C#CCN1C(=O)c2ccccc2Sc2cc(Nc3ncc(C)cc3C)ccc21,< 500
4,CC#CCN1C(=O)c2ccccc2Sc2cc(Nc3ncc(C)nc3C)cnc21,< 500
5,CC#CCN1C(=O)c2ccccc2Sc2cc(Nc3ncccc3F)cnc21,< 500
6,CC#CCN1C(=O)c2ccccc2Sc2cc(Nc3ncnc(C#N)c3C)cnc21,< 500
7,Cc1cnc(Nc2cnc3c(c2)Sc2ccccc2C(=O)N3CC#CCl)c(C)c1,< 500

# Same assay, conditions: Table 6; HCT116, 72 hours; read-out: Activity
row,Structure (SMILES),IC50 [nM]
1,CC#CCN1C(=O)c2ccccc2Sc2cc(NCCCOC)cnc21 [Table 6: —CH2CCMe; (CH2)3OMe; CH/N; S],< 500
2,C#CCN1C(=O)c2ccccc2Sc2cc(NC3COC3)cnc21 [Table 6: —CH2CCH; oxetan-3-yl; CH/N; S],< 500
3,CC#CCN1C(=O)c2ccccc2Sc2cc(NC3COC3)cnc21 [Table 6: —CH2CCMe; oxetan-3-yl; CH/N; S],< 500
4,CC#CCN1C(=O)c2ccccc2Sc2cc(NC34CC(C3)C4)ccc21,< 500
5,COC1CC(Nc2cnc3c(c2)Sc2ccccc2C(=O)N3CC#CCl)C1 (stereo not drawn) [Table 6: —CH2CCCl; 3-MeOcBu; CH/N; S],< 500

# Same assay, conditions: Table 7; cell viability assay, CellTiter-Glo, 72 hours; scaffold drawing 42 with R^2, R^3, X/Y, Z; read-out: Activity
row,Structure (SMILES),IC50 [nM]
1,C#CCOCCN1C(=O)c2ccccc2Sc2cc(NC(=O)c3ccc(N=[N+]=[N-])cc3)ccc21 [—(CH2)2OCH2CCH; 4-N3Ph; CH/CH; S],< 500
2,COCCN1C(=O)c2ccccc2Sc2cc(NC(=O)c3ccc(OC)cc3)ccc21 [—(CH2)2OMe; 4-MeOPh; CH/CH; S],< 500
3,C#CCOCCN1C(=O)c2ccccc2Sc2cc(NC(=O)c3cccc(CCC#N)c3)ccc21 [—(CH2)2OCH2CCH; 3-(2′-CNEt)Ph; CH/CH; S],< 500
4,"COCCN1C(=O)c2ccccc2Sc2cc(NC(=O)c3cc(C)oc3C)ccc21 [—(CH2)2OMe; 2,5-Me2-furan-3-yl; CH/CH; S]",1000 to 5000
5,C=CCCCOCCN1C(=O)c2ccccc2Sc2cc(NC(=O)c3ccoc3)ccc21,< 500
6,"COCCN1C(=O)c2ccccc2Sc2cc(NC(=O)c3ccc(NC=O)c(Cl)c3)ccc21 [—(CH2)2OMe; 3-Cl,4-HC(O)NHPh; CH/CH; S]",1000 to 5000

# Same assay, conditions: Table 8; analogs of scaffold drawing 43 defined by R^2, R^3, X/Y, W; read-out: Activity (IC50 class, cell viability assay)
row,Structure (SMILES),IC50 [nM]
1,CC#CCN1C(=O)c2ccc(F)cc2Sc2cc(NC(=O)CC3COC3)ccc21 [—CH2CCMe; (oxetan-3-yl)CH2; CF/CH; CH],< 500
2,CC#CCN1C(=O)c2ccccc2Sc2cc(NC(=O)C34CC(C)(C3)C4)ccc21,< 500
3,CC#CCN1C(=O)c2cc(F)ccc2Sc2cc(NC(=O)[C@@H]3C[C@H]3CO)ccc21 (relative stereo) [—CH2CCMe; trans-2-HOCH2-cPr; CH/CF; CH],< 500
4,COCC1CC(C(=O)Nc2ccc3c(c2)Sc2ccc(F)cc2C(=O)N3CC#CCF)C1 (stereo not drawn) [—CH2CCCH2F; 3-MeOCH2-cBu; CH/CF; CH],< 500
5,C#CCN1C(=O)c2ccc(Cl)cc2Sc2cc(NC(=O)[C@@H]3C[C@H]3CO)ccc21 (relative stereo) [—CH2CCH; trans-2-HOCH2-cPr; CCI/CH; CH],< 500
6,C#Cc1ccc(C(=O)Nc2ccc3c(c2)Sc2ccccc2C(=O)N3CC#CC)cn1 [—CH2CCMe; 6-(HCC)pyrid-3-yl; CH/CH; CH],< 500
7,CO[C@H]1C[C@@H](C(=O)Nc2ccc3c(c2)Sc2ccc(F)cc2C(=O)N3CC#CCl)C1 [—CH2CCCl; cis-3-MeOcBu; CH/CF; CH],< 500
8,CC#CCN1C(=O)c2ccccc2Sc2cc(NC(=O)C3CCOC3)cnc21 (stereo not drawn) [—CH2CCMe; tetrahydrofuran-3-yl; CH/CH; N],< 500
9,CC#CCN1C(=O)c2cc(F)ccc2Sc2cc(NC(=O)C3CC(COC)C3)cnc21 (stereo not drawn) [—CH2CCMe; 3-MeOCH2-cBu; CH/CF; N],< 500
10,CO[C@H]1C[C@H](C(=O)Nc2ccc3c(c2)Sc2cc(Cl)ccc2C(=O)N3CC#CCl)C1 [—CH2CCCl; trans-3-MeOcBu; CCI/CH; CH],< 500
11,CON=C1CC2(C1)CC(C(=O)Nc1cnc3c(c1)Sc1ccccc1C(=O)N3CC#CC1CC1)C2 (stereo not drawn),< 500
12,CC#CCN1C(=O)c2ccccc2Sc2cc(NC(=O)C3CCC3)ccc21 [—CH2CCMe; cBu; CH/CH; CH],< 500
13,C#CCN1C(=O)c2ccccc2Sc2cc(NC(=O)C3CC4(CC(=NO)C4)C3)cnc21 (stereo not drawn),< 500
14,CC#CCN1C(=O)c2ccc(Cl)cc2Sc2cc(NC(=O)CC3COC3)ccc21 [—CH2CCMe; (oxetan-3-yl)CH2; CCl/CH; CH],< 500
15,CC#CCN1C(=O)c2cc(F)ccc2Sc2cc(NC(=O)c3ccc(OC)cc3)ccc21 [—CH2CCMe; 4-MeOPh; CH/CF; CH],< 500
16,CC#CCN1C(=O)c2ccccc2Sc2cc(NC(=O)CCC#N)ccc21 [—CH2CCMe; (CH2)2CN; CH/CH; CH],< 500
17,CO[C@H]1C[C@@H](C(=O)Nc2cnc3c(c2)Sc2ccccc2C(=O)N3CC#CC2CC2)C1 [—CH2CC^cPr; cis-3-MeOcBu; CH/CH; N],< 500

# Same assay, conditions: Table 9; HCT116, 72 hours; read-out: Activity
row,Structure (SMILES),IC50 [nM]
1,COC12CC(C(=O)Nc3ccc4c(c3)C(C)c3ccccc3C(=O)N4CC#CC3CC3)(C1)C2 (stereo not drawn),< 500
2,CC1c2ccccc2C(=O)N(CC#CC2CC2)c2ccc(NC(=O)C3CCCO3)cc21 (stereo not drawn),< 500
3,O=C(Nc1ccc2c(c1)Cc1ccccc1C(=O)N2CC#CC1CC1)C1CC2(COC2)C1,< 500
4,CC#CCN1C(=O)c2ccccc2Cc2cc(NC(=O)[C@H]3C[C@@H](OC)C3)ccc21 [Table 9: —CH2CCMe; cis-3-MeOcBu; CH2],< 500
5,CC#CCN1C(=O)c2ccccc2C(C)c2cc(NC(=O)C=CCO)ccc21 (stereo not drawn) [Table 9: —CH2CCMe; CH═CHCH2OH; CHMe],< 500
6,COC1CC(C(=O)Nc2ccc3c(c2)C(C#N)c2ccccc2C(=O)N3CC#CCF)C1 (stereo not drawn) [Table 9: —CH2CCCH2F; cis-3-MeOcBu; CHCN],< 500
7,CC#CCN1C(=O)c2ccccc2C(C)(O)c2cc(NC(=O)c3ccc(OC)nc3)ccc21 (stereo not drawn),< 500
8,C#CCN1C(=O)c2ccccc2C(C#N)c2cc(NC(=O)[C@H]3C[C@H](OC)C3)ccc21 (stereo partly drawn) [Table 9: —CH2CCH; trans-3-MeOcBu; CHCN],< 500
9,CC#CCN1C(=O)c2ccccc2C(C)c2cc(NC(=O)[C@@H]3C[C@H]3COC)ccc21 (relative stereo),< 500
10,CC#CCN1C(=O)c2ccccc2C(C)c2cc(NC(=O)C3CC4(CC(=NO)C4)C3)ccc21 (stereo not drawn),< 500
11,CC#CCN1C(=O)c2ccccc2C(C)c2cc(NC(=O)C34CC(OC)(C3)C4)ccc21 (stereo not drawn),< 500

# Same assay, conditions: cell viability assay; Table 10 analogs of scaffold drawing 45 defined by R2, R3, X/Y, W; read-out: Activity
row,Structure (SMILES),IC50 [nM]
1,CO[C@H]1C[C@H](C(=O)Nc2cnc3c(c2)Sc2ccccc2C(=O)N3CC#CC2CC2)C1 [—CH2CCcPr; trans-3-MeOcBu; CH/CH; N],< 500
2,COCC1CC(C(=O)Nc2cnc3c(c2)Sc2ccccc2C(=O)N3CC#CC2CC2)C1 (stereo not drawn) [—CH2CCcPr; 3-MeOCH2-cBu; CH/CH; N],< 500
